Experimental findings from ChEMBL document CHEMBL1201862, “PubChem BioAssay data set” (2004) are described below.

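Tested at 5 concentrations; 48 h exposure; 96-well plates; endpoints linearly interpolated, else capped at highest concentration. GI50 is the concentration that inhibits growth by half.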 Active and inactive are the calls of the source. Rule as the data show it: active = GI50 up to about 1.1 µM and inactive = higher.

Test systems include PC-3; HL-60; UACC-257; 786-0; SF-268; IGROV-1; SNB-75; UO-31; CAKI-1; MOLT-4; K562; COLO 205; NCI/ADR-RES; SK-MEL-28; Hs-578T; HT-29; SF-539.
Holding throughout (assay): growth of human tumour cells (NCI), 48 h

Take `CC(C)CCC[C@@H](C)[C@H]1CC[C@H]2[C@@H]3CC[C@H]4C[C@H](N)CC[C@]4(C)[C@H]3CC[C@]12C`: the GI50 in the assay on PC-3 was 5.87 µM (inactive); in the assay with HL-60, 3.34 µM (inactive); with UACC-257, 19 µM (inactive); in the assay on 786-0, 20.4 µM (inactive); in the assay on SF-268, 26 µM (inactive); with IGROV-1 it was 11.3 µM (inactive). For the same molecule, the GI50 in the assay on SNB-75 is 18.5 µM (inactive); in the assay on UO-31 it was 13.5 µM (inactive); in the assay on CAKI-1, 16.4 µM (inactive); in the assay with MOLT-4, 11.3 µM (inactive); in the assay on K562, 24.5 µM (inactive); with COLO 205, 21 µM (inactive). In addition, the GI50 in the assay with NCI/ADR-RES was 26.7 µM (inactive); in the assay on SK-MEL-28 it was 28.3 µM (inactive); with Hs-578T it was 20 µM (inactive); in the assay with HT-29, 18.3 µM (inactive).
`COC1O[C@@H]2CCN3C(=O)[C@@H](OC(=O)c4ccc([N+](=O)[O-])cc4)[C@H]1C23` (stereo not given in full): the GI50 in the assay with UACC-257, in the assay on 786-0, with SF-268, in the assay on IGROV-1, in the assay on SNB-75 and in the assay on SF-539 was > 100 µM (inactive) throughout. Also, the GI50 in the assay with UO-31, in the assay on CAKI-1, in the assay on MOLT-4, with K562, with COLO 205 and with NCI/ADR-RES was > 100 µM (inactive) in each case. In addition, the GI50 in the assay on Hs-578T and with HT-29 was > 100 µM (inactive) in each case.
Consider `OCCCc1cc(O)c2c(c1)C(CO)C(c1ccc(O)c(O)c1)O2` (stereo not given), for which the GI50 in the assay with PC-3, with HL-60, in the assay on UACC-257, with 786-0, in the assay with SF-268 and in the assay on IGROV-1 was > 100 µM (inactive) in each case. Also, the GI50 in the assay on SF-539, with UO-31, in the assay on CAKI-1, in the assay with MOLT-4, in the assay on K562 and in the assay on COLO 205 was > 100 µM (inactive) in each case. The GI50 in the assay with NCI/ADR-RES, in the assay on SK-MEL-28, in the assay with Hs-578T and in the assay on HT-29 was > 100 µM (inactive) in each case.
Take `CC1=C(C)C(=O)OC(C(C)(O)C2(O)CC3OC34C3CC(O)C56OC5C=CC(=O)C6(C)C3CCC42C)C1` (stereo not given): the GI50 was 2.87 µM (inactive) in the assay on PC-3; 0.264 µM (active) in the assay with HL-60; 1.6 µM (inactive) in the assay on UACC-257; 1.51 µM (inactive) with 786-0; 1.64 µM (inactive) with SF-268; 1.72 µM (inactive) in the assay on IGROV-1. Further, the GI50 was 3.78 µM (inactive) with SNB-75; 2 µM (inactive) with SF-539; 0.341 µM (active) with UO-31; 2.5 µM (inactive) with CAKI-1; 0.586 µM (active) in the assay with MOLT-4; 0.927 µM (active) with K562. For the same molecule, the GI50 with COLO 205 is 1.5 µM (inactive); in the assay with SK-MEL-28, 1.41 µM (inactive); in the assay with Hs-578T, 1.77 µM (inactive); in the assay with HT-29, 1.15 µM (inactive).
Regarding `COc1cc2c3c(c1Oc1nnnn1-c1ccccc1)-c1c(ccc4c1OCO4)C[C@H]3N(C)CC2`, the GI50 in the assay on PC-3 was 38.6 µM (inactive); in the assay with HL-60, 15.1 µM (inactive); in the assay on UACC-257, 20.5 µM (inactive); in the assay on 786-0, 17.5 µM (inactive); in the assay on SF-268, 48.9 µM (inactive); with IGROV-1 it was 41.6 µM (inactive). The GI50 in the assay with SNB-75 is 22.6 µM (inactive); with SF-539, > 100 µM (inactive); in the assay with UO-31 it was 78.9 µM (inactive); in the assay on MOLT-4, 35.7 µM (inactive); with K562 it was 29.6 µM (inactive); in the assay on COLO 205, 32.2 µM (inactive). The GI50 in the assay with NCI/ADR-RES is 35.7 µM (inactive); in the assay with SK-MEL-28, 17.8 µM (inactive); in the assay on Hs-578T, 28.4 µM (inactive); in the assay with HT-29, 18.5 µM (inactive).
Take `Cc1ccc(/N=C2\SC(=S)N(CCC[N+](C)(C)C)\C2=N/c2ccc(C)cc2)cc1`: the GI50 in the assay on PC-3 is 13.7 µM (inactive); with HL-60 it was 1.99 µM (inactive); in the assay on UACC-257, 12 µM (inactive); in the assay on 786-0, 14.1 µM (inactive); in the assay on IGROV-1 it was 10.1 µM (inactive); in the assay on SNB-75, 2.94 µM (inactive). The GI50 in the assay with UO-31 is 18.5 µM (inactive); in the assay on MOLT-4, 10.1 µM (inactive); in the assay with K562 it was 7.13 µM (inactive); in the assay with COLO 205, 10.3 µM (inactive); in the assay on SK-MEL-28 it was 7.64 µM (inactive); in the assay on Hs-578T, 4.08 µM (inactive). In addition, the GI50 with HT-29 is 14.8 µM (inactive).
For the molecule `CN(C)c1ccc(/C=C2\N=C(NNc3ccccc3)NC2=O)cc1`, the GI50 with PC-3 is 13.2 µM (inactive); with UACC-257, 15.6 µM (inactive); in the assay with 786-0, 17.9 µM (inactive); in the assay on SF-268, 27.3 µM (inactive); in the assay with IGROV-1 it was 23.4 µM (inactive); in the assay on SNB-75 it was 25.5 µM (inactive). Further, the GI50 with SF-539 was 19.5 µM (inactive); in the assay with UO-31, 31 µM (inactive); in the assay with CAKI-1, 26.2 µM (inactive); with MOLT-4 it was < 0.01 µM (active); with COLO 205, 15.6 µM (inactive); in the assay with NCI/ADR-RES, 19.8 µM (inactive). The GI50 with SK-MEL-28 was 29.1 µM (inactive); in the assay with Hs-578T, 35 µM (inactive); with HT-29 it was 16.9 µM (inactive).
As for `Cc1c(O)c(OC2OC(CO)C(O)C(O)C2O)cc2c1C=C[C@@H]1[C@@]2(C)C(=O)C[C@]2(C)[C@@H]([C@@](C)(O)C(=O)CCC(C)(C)O)[C@H](O)C[C@@]12C` (stereo not given in full), the GI50 was 21.6 µM (inactive) in the assay with PC-3; 41.5 µM (inactive) with HL-60; 20.9 µM (inactive) in the assay with UACC-257; 25.2 µM (inactive) with 786-0; 28.7 µM (inactive) with SF-268; 19.7 µM (inactive) in the assay with IGROV-1. Besides, the GI50 is 25.1 µM (inactive) in the assay on SNB-75; 18.1 µM (inactive) with SF-539; 20.2 µM (inactive) in the assay on UO-31; 20 µM (inactive) in the assay with CAKI-1; 19.7 µM (inactive) in the assay on MOLT-4; 34.1 µM (inactive) in the assay on K562. In addition, the GI50 in the assay on COLO 205 is 35.5 µM (inactive); in the assay with NCI/ADR-RES it was 25.5 µM (inactive); in the assay on SK-MEL-28 it was 21.1 µM (inactive); in the assay on HT-29, 28.8 µM (inactive).
As to `C=CCOC(=O)N1c2ccc(O[Si](C)(C)C(C)(C)C)cc2[C@@]23O[C@@]24[C@@H]1C#C/C=C\C#C[C@]3(O)C(OC)(OC)C[C@@H]4C`, the GI50 in the assay with PC-3 was 4.54 µM (inactive); in the assay with UACC-257, 19 µM (inactive); in the assay on 786-0, 43.5 µM (inactive); with SF-268, 97.7 µM (inactive); in the assay on IGROV-1, > 100 µM (inactive); in the assay with SNB-75, 4.82 µM (inactive). Also, the GI50 with SF-539 was > 29.2 µM (inactive); in the assay on UO-31, 14.1 µM (inactive); with CAKI-1, 2.71 µM (inactive); in the assay with MOLT-4, 2.89 µM (inactive); in the assay on K562, 4.14 µM (inactive); in the assay with COLO 205, > 26.8 µM (inactive). In addition, the GI50 in the assay with NCI/ADR-RES is 41.6 µM (inactive); in the assay with SK-MEL-28, > 100 µM (inactive); with Hs-578T it was 37.8 µM (inactive); with HT-29 it was 12.9 µM (inactive).
Consider `Nc1nn2c(=O)c3ccccc3nc2s1`, for which the GI50 is > 100 µM (inactive) in the assay on PC-3; > 100 µM (inactive) in the assay with UACC-257; 42.5 µM (inactive) with 786-0; 38.8 µM (inactive) with SF-268; 65.5 µM (inactive) in the assay on IGROV-1; > 100 µM (inactive) in the assay on SNB-75. For the same molecule, the GI50 is 43.9 µM (inactive) in the assay with SF-539; 28.2 µM (inactive) in the assay on UO-31; > 100 µM (inactive) with CAKI-1; 23.3 µM (inactive) in the assay on MOLT-4; 28.4 µM (inactive) with K562; 35.4 µM (inactive) in the assay with COLO 205. In addition, the GI50 with NCI/ADR-RES was > 100 µM (inactive); in the assay with SK-MEL-28, > 100 µM (inactive); in the assay with Hs-578T it was > 100 µM (inactive); in the assay on HT-29 it was 41.2 µM (inactive).
Regarding `S=C(N/N=C\C(=N/NC(=S)N1CCCCC1)c1ccccc1)N1CCCCC1`, the GI50 in the assay with PC-3 was 1.92 µM (inactive); with UACC-257, 2.14 µM (inactive); in the assay with 786-0, 1.85 µM (inactive); with SF-268 it was 1.99 µM (inactive); in the assay with IGROV-1, 1.76 µM (inactive); with SNB-75 it was 2.1 µM (inactive). The GI50 was 2.36 µM (inactive) in the assay on SF-539; 1.74 µM (inactive) in the assay with UO-31; 2.15 µM (inactive) with CAKI-1; 5.68 µM (inactive) in the assay on K562; 2.03 µM (inactive) in the assay on COLO 205; 2.31 µM (inactive) in the assay with NCI/ADR-RES. The GI50 in the assay with SK-MEL-28 is 1.9 µM (inactive); in the assay on Hs-578T, 1.82 µM (inactive); with HT-29, 2.23 µM (inactive).
Turning to `O=S(=O)(/N=S(/Nc1ccccc1)C(F)(F)Cl)c1ccccc1` (stereo not given), the GI50 in the assay with PC-3, in the assay with HL-60, with UACC-257, in the assay with 786-0, in the assay with SF-268 and in the assay on IGROV-1 was > 100 µM (inactive) in each case. Also, the GI50 with SNB-75, with SF-539, in the assay on UO-31, in the assay on MOLT-4, with K562 and in the assay with COLO 205 was > 100 µM (inactive) in each case. Besides, the GI50 in the assay on NCI/ADR-RES, with SK-MEL-28, with Hs-578T and with HT-29 was > 100 µM (inactive) each time.
